{"source": "paper PMC6844301", "about": "“Antibacterial activity of a Tribolium castaneum defensin in an in vitro infection model of Streptococcus pneumoniae” (Virulence, 2019)", "origin": "cited, not measured here"}
{"test_system": "multi-resistant clinical isolate serotype 19A (AMR)", "details": "strain description of the AMR isolate in methods; method or ref not given", "description": "They were grown on sheep blood agar plates for 10 h and then transferred to Todd Hewitt Yeast (THY) medium (Carl Roth GmbH, Karlsruhe) at a density of 4 × 10^7 bacteria/ml (Ultraspec 10 Cell Densitometer, Amersham Biosciences). Upon reaching a density of 2 × 10^8 bacteria/ml, the bacterial suspension was diluted to 5 × 10^6 bacteria/ml. To esta ...", "units": {"resistant against (antibiotic concentration)": "µg/mL"}}
{"compound": "CN(C)[C@@H]1C(O)=C(C(N)=O)C(=O)[C@@]2(O)C(O)=C3C(=O)c4c(O)cccc4[C@@](C)(O)[C@H]3C[C@@H]12", "note": "[Tetracycline]", "resistant against (antibiotic concentration)": 32}
{"compound": "CCC[C@@H]1C[C@@H](C(=O)N[C@@H]([C@H]2O[C@H](SC)[C@H](O)[C@@H](O)[C@H]2O)[C@H](C)Cl)N(C)C1", "note": "[Clindamycin]", "resistant against (antibiotic concentration)": 256}
{"compound": "CO/N=C(\\C(=O)N[C@@H]1C(=O)N2C(C(=O)O)=C(COC(C)=O)CS[C@H]12)c1csc(N)n1", "note": "[Cefotaxim]", "resistant against (antibiotic concentration)": 4}
{"compound": "Penicillin", "resistant against (antibiotic concentration)": 8}
